Assay results as given in ChEMBL document CHEMBL3871299, “Design and synthesis of new piperidone grafted acetylcholinesterase inhibitors” (Bioorg Med Chem Lett, 2017).

Key:
[1] = biological target: T1, Acetylcholinesterase (Homo sapiens, UniProt P22303); experiment: Inhibition of acetylcholinesterase (unknown origin) assessed as reduction in formation of 5-thio-2-nitrobenzoate from acetylthiocholine iodide preincubated for 15 mins followed by substrate addition measured after 30 mins by Ellman's method
T1 sequence (P22303 whole entry): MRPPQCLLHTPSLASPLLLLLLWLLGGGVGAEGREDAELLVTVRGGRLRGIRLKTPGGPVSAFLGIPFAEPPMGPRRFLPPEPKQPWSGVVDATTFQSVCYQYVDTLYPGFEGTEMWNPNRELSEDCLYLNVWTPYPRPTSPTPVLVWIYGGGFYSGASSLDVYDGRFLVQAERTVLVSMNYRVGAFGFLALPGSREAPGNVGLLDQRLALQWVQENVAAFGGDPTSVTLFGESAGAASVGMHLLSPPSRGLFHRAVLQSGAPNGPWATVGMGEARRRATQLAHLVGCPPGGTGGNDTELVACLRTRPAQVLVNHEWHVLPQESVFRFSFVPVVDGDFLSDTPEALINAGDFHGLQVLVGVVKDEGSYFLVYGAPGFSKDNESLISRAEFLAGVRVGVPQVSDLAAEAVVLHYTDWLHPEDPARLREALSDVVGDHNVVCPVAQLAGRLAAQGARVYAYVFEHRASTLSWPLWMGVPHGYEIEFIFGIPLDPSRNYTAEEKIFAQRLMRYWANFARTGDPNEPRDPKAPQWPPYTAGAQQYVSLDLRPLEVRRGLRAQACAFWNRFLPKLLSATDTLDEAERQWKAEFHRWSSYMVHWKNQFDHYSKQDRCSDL

[2] = biological target: T1, Acetylcholinesterase; experiment: Inhibition of acetylcholinesterase (unknown origin) assessed as reduction in formation of 5-thio-2-nitrobenzoate from acetylthiocholine iodide at 5 ug/ml preincubated for 15 mins followed by substrate addition measured after 30 mins by Ellman's method
[3] = Cytotoxicity against human SH-SY5Y cells assessed as reduction in cell viability at 0.2 to 40 uM measured after 24 hrs by MTT assay; assay type: toxicity, cell-based

## Clc1ccc(C=C2CNCC3=C2N=C2SC=C(c4ccc5ccccc5c4)N2C3c2ccc(Cl)cc2)cc1 (configuration not stated)
[1]
  IC50: 1350 nM
[2]
  inhibition: 62.8%

## O=C1/C(=C/c2ccc(Br)cc2)CN(Cc2ccc3ccccc3c2)C/C1=C\c1ccc(Br)cc1
[1]
  IC50: 830 nM
[2]
  inhibition: 67.2%
[3]
  Activity: Non-Toxic

## Clc1ccc(C=C2CNCC3=C2N=C2SC=C(c4ccc(Br)cc4)N2C3c2ccc(Cl)cc2)cc1 (configuration not stated)
[2]
  inhibition: 41.6%

## C(=C1CNCC2=C1N=C1SC=C(c3ccc4ccccc4c3)N1C2c1ccccc1)c1ccccc1 (configuration not stated)
[2]
  inhibition: 41.8%

## Cc1cccc(CN2C/C(=C\c3ccccc3)C(=O)/C(=C/c3ccccc3)C2)c1
[1]
  IC50: 3180 nM
[2]
  inhibition: 63.1%

## Cc1ccc(/C=C2\CN(Cc3ccc4ccccc4c3)C/C(=C\c3ccc(C)cc3)C2=O)cc1
[1]
  IC50: 1590 nM
[2]
  inhibition: 72.6%

## O=C1/C(=C/c2ccc(Cl)cc2)CN(Cc2ccc3ccccc3c2)C/C1=C\c1ccc(Cl)cc1
[2]
  inhibition: 42.4%

## O=C1/C(=C/c2ccccc2)CN(Cc2ccc3ccccc3c2)C/C1=C\c1ccccc1
[1]
  IC50: 1930 nM
[2]
  inhibition: 67.9%

## Cc1ccc(C=C2CNCC3=C2N=C2SC=C(c4ccccc4)N2C3c2ccc(C)cc2)cc1 (configuration not stated)
[2]
  inhibition: 45.7%

## Cc1ccc(C2=CSC3=NC4=C(CNCC4=Cc4ccccc4)C(c4ccccc4)N23)cc1 (configuration not stated)
[2]
  inhibition: 42.1%

## Cc1ccc(C=C2CNCC3=C2N=C2SC=C(c4ccc5ccccc5c4)N2C3c2ccc(C)cc2)cc1 (configuration not stated)
[1]
  IC50: 980 nM
[2]
  inhibition: 69.6%
[3]
  Activity: Non-Toxic

## C(=C1CNCC2=C1N=C1SC=C(c3ccccc3)N1C2c1ccccc1)c1ccccc1 (configuration not stated)
[2]
  inhibition: 48.6%

## Clc1ccc(C=C2CNCC3=C2N=C2SC=C(c4ccccc4)N2C3c2ccc(Cl)cc2)cc1 (configuration not stated)
[2]
  inhibition: 41.6%

## Brc1ccc(C=C2CNCC3=C2N=C2SC=C(c4ccc(Br)cc4)N2C3c2ccc(Br)cc2)cc1 (configuration not stated)
[2]
  inhibition: 48.3%

## Cc1ccc(/C=C2\CN(Cc3cccc(C)c3)C/C(=C\c3ccc(C)cc3)C2=O)cc1
[1]
  IC50: 3220 nM
[2]
  inhibition: 59.8%

## Brc1ccc(C=C2CNCC3=C2N=C2SC=C(c4ccc5ccccc5c4)N2C3c2ccc(Br)cc2)cc1 (configuration not stated)
[1]
  IC50: 730 nM
[2]
  inhibition: 65.7%
[3]
  Activity: Non-Toxic

## Brc1ccc(C2=CSC3=NC4=C(CNCC4=Cc4ccccc4)C(c4ccccc4)N23)cc1 (configuration not stated)
[2]
  inhibition: 48.7%

## Cc1cccc(CN2C/C(=C\c3ccc(Cl)cc3)C(=O)/C(=C/c3ccc(Cl)cc3)C2)c1
[2]
  inhibition: 41.6%

## Cc1ccc(C=C2CNCC3=C2N=C2SC=C(c4ccc(Br)cc4)N2C3c2ccc(C)cc2)cc1 (configuration not stated)
[1]
  IC50: 2270 nM
[2]
  inhibition: 64.6%

## Brc1ccc(C=C2CNCC3=C2N=C2SC=C(c4ccccc4)N2C3c2ccc(Br)cc2)cc1 (configuration not stated)
[1]
  IC50: 1480 nM
[2]
  inhibition: 66.7%

## Cc1ccc(C2=CSC3=NC4=C(CNCC4=Cc4ccc(Cl)cc4)C(c4ccc(Cl)cc4)N23)cc1 (configuration not stated)
[1]
  IC50: 1090 nM
[2]
  inhibition: 74.7%
[3]
  Activity: Non-Toxic

## Cc1cccc(CN2C/C(=C\c3ccc(Br)cc3)C(=O)/C(=C/c3ccc(Br)cc3)C2)c1
[2]
  inhibition: 45.7%

## Cc1ccc(C2=CSC3=NC4=C(CNCC4=Cc4ccc(Br)cc4)C(c4ccc(Br)cc4)N23)cc1 (configuration not stated)
[1]
  IC50: 1010 nM
[2]
  inhibition: 68.3%
[3]
  Activity: Non-Toxic

## Cc1ccc(C=C2CNCC3=C2N=C2SC=C(c4ccc(C)cc4)N2C3c2ccc(C)cc2)cc1 (configuration not stated)
[1]
  IC50: 1800 nM
[2]
  inhibition: 60.4%
